Article PMC10458470 (Molecules, 2023)
Read-outs that look alike come from different tables or passages of the source.

Experiments:
Assay in all cases: UV-Vis absorption titration (Kb) and fluorescence quenching (KSV […] ^-1)
Assay type in all cases: binding
[1] = target: T1, human serum albumin (HSA) (Homo sapiens, UniProt P02768); details: read-out: UV-Vis absorption titration (Kb) and fluorescence quenching (KSV 4.6 × 10^6 M^-1) (converted)
T1 construct: gene ALB

[2] = target: T1, human serum albumin (HSA); details: read-out: UV-Vis absorption titration (Kb) and fluorescence quenching (KSV 4 × 10^6 M^-1) (converted)
[3] = target: T1, human serum albumin (HSA); details: read-out: UV-Vis absorption titration (Kb) and fluorescence quenching (KSV 5.6 × 10^6 M^-1) (converted)

T1 sequence (P02768 25-609): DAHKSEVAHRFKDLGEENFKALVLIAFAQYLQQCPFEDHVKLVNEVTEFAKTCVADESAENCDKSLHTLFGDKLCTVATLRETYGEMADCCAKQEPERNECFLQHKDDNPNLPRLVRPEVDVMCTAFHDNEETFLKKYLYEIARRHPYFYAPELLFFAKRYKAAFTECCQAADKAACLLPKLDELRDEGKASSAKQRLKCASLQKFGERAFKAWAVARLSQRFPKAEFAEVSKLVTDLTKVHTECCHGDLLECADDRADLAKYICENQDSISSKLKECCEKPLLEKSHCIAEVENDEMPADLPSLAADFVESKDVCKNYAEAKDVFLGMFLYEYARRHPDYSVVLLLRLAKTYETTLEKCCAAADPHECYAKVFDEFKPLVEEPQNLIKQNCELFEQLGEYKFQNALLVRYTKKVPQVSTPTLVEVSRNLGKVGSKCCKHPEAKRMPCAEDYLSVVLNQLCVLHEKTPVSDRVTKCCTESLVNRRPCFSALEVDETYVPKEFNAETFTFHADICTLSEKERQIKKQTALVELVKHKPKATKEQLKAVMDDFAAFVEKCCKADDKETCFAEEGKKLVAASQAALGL

Substance: [Ni(NTZ)2Cl2] [NTZ-Ni(II)]
- Kd [1]: 20.9 µM

Substance: [Zn(NTZ)2Cl2] [NTZ-Zn(II)]
- Kd [2]: 13.4 µM

Substance: [Cu(NTZ)2Cl2] [NTZ-Cu(II)]
- Kd [3]: 5.35 µM
